# Laboratory results as given in US6362174B1, “Reduced dipeptide analogues as calcium channel antagonitsts” (Warner-Lambert Company, priority 1998, dated 2002).
# Structures can show the parent of a compound that is named as a salt.
# Experiments:
# N-type Ca2+ channel = target: T1, N-type Ca2+ channel (Homo sapiens, UniProt Q00975); assay: Measurement of N-type Ca2+ channel blocking potencies in IMR32 cells using the fluorescent Ca2+ indicator Indo-1; type: cell-based; conditions: IMR-32 cells; for IC50: K+ depolarization, 5 μM nitrendipine to block L-type channels
# T1 construct: host or cells: IMR-32 human neuroblastoma cells, differentiated with dibutyryl cAMP and bromodeoxyuridine
# T1 sequence (Q00975 whole entry): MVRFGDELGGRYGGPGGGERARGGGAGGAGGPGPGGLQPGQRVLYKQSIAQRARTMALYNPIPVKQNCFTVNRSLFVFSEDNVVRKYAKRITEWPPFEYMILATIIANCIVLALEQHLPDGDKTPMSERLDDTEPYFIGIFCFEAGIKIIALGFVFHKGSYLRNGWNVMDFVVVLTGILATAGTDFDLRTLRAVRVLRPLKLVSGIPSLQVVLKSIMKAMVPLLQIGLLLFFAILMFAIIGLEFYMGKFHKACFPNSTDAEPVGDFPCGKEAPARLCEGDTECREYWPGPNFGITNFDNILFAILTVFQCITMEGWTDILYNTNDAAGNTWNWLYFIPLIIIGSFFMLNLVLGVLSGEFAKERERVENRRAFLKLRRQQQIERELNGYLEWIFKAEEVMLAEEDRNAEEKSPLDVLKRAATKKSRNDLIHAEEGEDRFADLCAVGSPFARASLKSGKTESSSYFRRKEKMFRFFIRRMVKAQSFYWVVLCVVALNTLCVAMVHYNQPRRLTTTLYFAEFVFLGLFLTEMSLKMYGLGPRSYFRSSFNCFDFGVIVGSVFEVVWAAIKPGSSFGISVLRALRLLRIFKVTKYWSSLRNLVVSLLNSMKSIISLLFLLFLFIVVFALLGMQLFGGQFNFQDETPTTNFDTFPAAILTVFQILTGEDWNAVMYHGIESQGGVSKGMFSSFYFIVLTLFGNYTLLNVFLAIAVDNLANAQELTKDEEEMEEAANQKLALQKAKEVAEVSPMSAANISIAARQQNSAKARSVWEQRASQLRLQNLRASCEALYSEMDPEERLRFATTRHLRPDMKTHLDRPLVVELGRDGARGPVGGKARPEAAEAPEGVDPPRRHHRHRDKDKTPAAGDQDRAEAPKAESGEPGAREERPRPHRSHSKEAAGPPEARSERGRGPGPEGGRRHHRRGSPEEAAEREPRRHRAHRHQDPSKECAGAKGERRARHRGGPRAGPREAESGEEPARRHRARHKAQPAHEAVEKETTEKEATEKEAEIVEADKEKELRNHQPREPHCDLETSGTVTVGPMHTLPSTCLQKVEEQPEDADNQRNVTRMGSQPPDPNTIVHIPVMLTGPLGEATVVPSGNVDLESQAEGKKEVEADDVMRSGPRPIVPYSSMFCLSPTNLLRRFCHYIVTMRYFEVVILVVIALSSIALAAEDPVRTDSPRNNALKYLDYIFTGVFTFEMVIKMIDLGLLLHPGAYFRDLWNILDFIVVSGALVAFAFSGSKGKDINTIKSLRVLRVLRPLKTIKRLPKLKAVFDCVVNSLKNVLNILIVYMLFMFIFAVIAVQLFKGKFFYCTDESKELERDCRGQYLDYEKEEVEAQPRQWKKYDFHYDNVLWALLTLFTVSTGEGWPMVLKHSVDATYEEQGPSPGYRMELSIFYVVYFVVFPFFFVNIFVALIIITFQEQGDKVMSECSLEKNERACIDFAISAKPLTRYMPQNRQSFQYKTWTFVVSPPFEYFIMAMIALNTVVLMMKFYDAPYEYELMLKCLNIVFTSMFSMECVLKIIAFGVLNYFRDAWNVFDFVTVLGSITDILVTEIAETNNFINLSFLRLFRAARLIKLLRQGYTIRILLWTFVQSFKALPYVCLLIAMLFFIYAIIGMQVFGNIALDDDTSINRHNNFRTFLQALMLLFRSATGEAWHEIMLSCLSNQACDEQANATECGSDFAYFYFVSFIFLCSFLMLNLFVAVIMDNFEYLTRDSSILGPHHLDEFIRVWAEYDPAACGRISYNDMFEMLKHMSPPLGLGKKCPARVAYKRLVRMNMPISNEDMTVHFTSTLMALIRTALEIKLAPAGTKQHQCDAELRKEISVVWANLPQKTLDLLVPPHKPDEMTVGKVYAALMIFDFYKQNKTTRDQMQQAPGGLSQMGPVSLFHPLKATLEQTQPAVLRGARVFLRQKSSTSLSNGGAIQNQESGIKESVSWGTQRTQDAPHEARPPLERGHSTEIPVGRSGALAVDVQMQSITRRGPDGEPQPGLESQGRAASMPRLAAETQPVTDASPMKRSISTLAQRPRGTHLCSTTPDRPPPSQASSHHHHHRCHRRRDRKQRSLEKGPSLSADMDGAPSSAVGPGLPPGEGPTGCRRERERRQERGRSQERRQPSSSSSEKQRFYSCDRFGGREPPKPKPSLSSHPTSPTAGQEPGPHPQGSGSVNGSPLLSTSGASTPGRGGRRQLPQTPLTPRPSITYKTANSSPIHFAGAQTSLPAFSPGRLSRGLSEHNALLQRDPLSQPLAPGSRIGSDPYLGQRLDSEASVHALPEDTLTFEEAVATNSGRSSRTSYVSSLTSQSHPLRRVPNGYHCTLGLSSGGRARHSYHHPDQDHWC
# T1 sequence (Q02641 whole entry partner): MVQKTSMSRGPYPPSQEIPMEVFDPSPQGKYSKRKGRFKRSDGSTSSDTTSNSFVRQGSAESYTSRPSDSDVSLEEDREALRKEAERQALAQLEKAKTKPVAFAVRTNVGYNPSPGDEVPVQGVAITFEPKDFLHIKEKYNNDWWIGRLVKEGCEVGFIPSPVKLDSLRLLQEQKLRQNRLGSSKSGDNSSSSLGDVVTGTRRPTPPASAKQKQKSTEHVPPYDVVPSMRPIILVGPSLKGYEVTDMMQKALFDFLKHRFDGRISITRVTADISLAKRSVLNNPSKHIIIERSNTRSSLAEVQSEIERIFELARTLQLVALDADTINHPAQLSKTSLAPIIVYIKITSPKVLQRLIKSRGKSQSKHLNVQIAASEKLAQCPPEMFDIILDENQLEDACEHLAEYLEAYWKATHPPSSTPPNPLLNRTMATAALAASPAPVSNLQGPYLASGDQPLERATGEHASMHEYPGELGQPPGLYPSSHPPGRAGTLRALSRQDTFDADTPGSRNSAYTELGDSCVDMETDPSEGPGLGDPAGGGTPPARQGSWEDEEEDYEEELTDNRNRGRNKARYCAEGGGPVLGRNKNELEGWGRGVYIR
# T1 sequence (P54289 25-956 partner limits assumed): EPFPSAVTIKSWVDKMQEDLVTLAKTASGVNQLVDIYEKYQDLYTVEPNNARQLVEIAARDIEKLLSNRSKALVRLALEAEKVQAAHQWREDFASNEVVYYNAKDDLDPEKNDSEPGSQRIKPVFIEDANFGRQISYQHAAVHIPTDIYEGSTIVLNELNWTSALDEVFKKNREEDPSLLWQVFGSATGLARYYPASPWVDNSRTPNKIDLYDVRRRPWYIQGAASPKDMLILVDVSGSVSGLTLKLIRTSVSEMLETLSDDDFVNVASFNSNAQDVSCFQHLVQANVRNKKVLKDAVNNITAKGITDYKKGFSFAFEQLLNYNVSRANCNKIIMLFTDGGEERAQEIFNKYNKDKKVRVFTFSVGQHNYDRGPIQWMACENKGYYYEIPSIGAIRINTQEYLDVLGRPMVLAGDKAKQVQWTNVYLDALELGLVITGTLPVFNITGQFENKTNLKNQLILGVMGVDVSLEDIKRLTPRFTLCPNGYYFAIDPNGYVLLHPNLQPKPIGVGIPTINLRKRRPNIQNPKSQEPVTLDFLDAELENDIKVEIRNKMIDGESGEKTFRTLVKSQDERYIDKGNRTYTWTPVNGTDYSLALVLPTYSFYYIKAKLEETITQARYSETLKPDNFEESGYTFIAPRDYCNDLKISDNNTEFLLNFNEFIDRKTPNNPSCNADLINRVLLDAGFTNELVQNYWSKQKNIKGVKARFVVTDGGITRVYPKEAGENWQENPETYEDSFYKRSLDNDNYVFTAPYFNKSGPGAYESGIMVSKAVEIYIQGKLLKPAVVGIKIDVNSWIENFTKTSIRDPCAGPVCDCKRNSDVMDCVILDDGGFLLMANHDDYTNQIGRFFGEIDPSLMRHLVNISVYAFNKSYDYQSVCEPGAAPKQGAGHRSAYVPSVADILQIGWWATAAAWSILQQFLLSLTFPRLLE
# T1 sequence (P54289 957-1103 partner limits assumed): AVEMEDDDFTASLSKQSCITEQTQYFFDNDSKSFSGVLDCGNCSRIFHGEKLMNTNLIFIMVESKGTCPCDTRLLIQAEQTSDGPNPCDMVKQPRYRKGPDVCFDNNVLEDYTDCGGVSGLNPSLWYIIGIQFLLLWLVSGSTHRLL
# Description: Measurement of N-type Ca^2+ Channel Blocking Potencies of Compounds in IMR32 Cells Using the Fluorescent Ca^2+ Indicator Indo-1
# IMR-32 cells are a human tumoral cell line of neural origin. […] Calcium flux into these cells may be induced by stimulation with elevated potassium concentrations. The L-channel component of calcium flux may be blocked by adding 5 μM nitrendipine. The remaining component of calcium entry into the IMR-32 cells is due to calcium flux through N-type calcium channels. Intracellular calcium concentrations are measured using the fluorescent calcium indicator Indo-1. The effect of drug concentration on calcium uptake is studied.
# The IMR-32 cell line was obtained from the American Type Culture Collection (Rockville, Md.). Cells were grown in Eagle's Minimum Essential Medium with Earle's salts supplemented with 10% fetal bovine serum, 2 mM L-Gln and antibiotic/antimicotic mixture (Gibco). At approximately 80% confluency, differentiation was induced by the addition of 1 mM dibutyryl cAMP and 2.5 μM bromodeoxyuridine to the medium. After 7 to 13 days of differentiation, cells were detached using 0.5 mM EDTA and loaded with 5 μM Indo-1 acetoxymethyl ester (Molecular Probes, Eugene, Oreg.) at […] for 45 minutes. Loaded cells were washed twice, resuspended (˜10^7 cells/mL) in assay buffer (10 mM HEPES/Tris pH 7.4 in Hank's Balanced Salt Solution without bicarbonate or phenol red containing 0.5% bovine serum albumin) and kept on ice until use. Fluorescence measurements were carried out in a Photon Technology International (PTI, South Brunswick, N.J.) Model RF-F3004 spectrofluorometer with dual emission monochromators using excitation at 350 nm and emission at 400 and 490 nm. The instrument was equipped with a thermostated cuvette holder with stirring capabilities as well as with a computer-controlled pump that allowed for reagent addition during measurement. Instrument control and data collection was done by PTI's OSCAR software running on an IBM compatible computer. Different concentrations of the test compounds (60 μL in dimethyl sulfoxide) were added to 5.94 mL of assay buffer containing approximately 3×10^6 loaded cells, and 5 μM Nitrendipine (in 30 μL EtOH) to block L-type Ca^2+ channels. Samples were incubated for 10 minutes at 30° C. and then aliquoted into three 10×10 mm disposable acrylic cuvettes. Emission signals at 400 and 490 nm were acquired from each cuvette at 30° C. for 50 seconds. At 20 seconds after the start of reading, cells were depolarized by the addition of 160 μL of stimulation solution (1M KCl, 68 mM CaCl2) to the cuvette via the computer-controlled pump. Ratio of dual emission signals (400 nm/490 nm), which is proportional to intracellular Ca^2+ concentration, was plotted against time, and the difference between maximal response after stimulation and basal value (before stimulation) was determined. Values obtained in this way were plotted as a function of drug concentration. IC50 values of test compounds were calculated by fitting a 4-parameter logistic function to the data using the least squares method.
# DBA/2 mice = assay: Audiogenic seizure model in DBA/2 mice; type: in vivo; conditions: for protection: 30 mg/kg, 15 minutes posttreatment time
# Description: Audiogenic Seizure Model in DBA/2 Mice
# Compounds of the present invention were dissolved in water using 10% (weight/volume) Emulphor (GAF Corp., Wayne, N.J.) surfactant. Substances were administered by intravenous injection into the retro-orbital venous sinus. All testing was performed 15 minutes or 45 minutes after drug injection. All the male mice, 3 to 4 weeks old, were obtained from Jackson Laboratories, Bar Harbour, Me. Immediately before anticonvulsant testing, mice were placed upon a wire mesh, 4 inches square suspended from a steel rod. […] Any mouse falling from the wire mesh was scored as ataxic.
# Mice were placed into an enclosed acrylic plastic chamber (21 cm height, approximately 30 cm diameter) with a high-frequency speaker (4 cm diameter) in the center of the top lid. An audio signal generator (Protek model B-810) was used to produce a continuous sinusoidal tone that was swept linearly in frequency between 8 kHz and 16 kHz once each 10 msec. The average sound pressure level (SPL) during stimulation was approximately 100 dB at the floor of the chamber. Mice were placed within the chamber and allowed to acclimatize for 1 minute. DBA/2 mice in the vehicle-treated group responded to the sound stimulus (applied until tonic extension occurred, or for a maximum of 60 seconds) with a characteristic seizure sequence consisting of wild running followed by clonic seizures, and later by tonic extension, and finally by respiratory arrest and death in 80% or more of the mice. In vehicle-treated mice, the entire sequence of seizures to respiratory arrest lasts approximately 15 to 20 seconds.
# The incidence of all the seizure phases in the drug-treated and vehicle-treated mice was recorded, and the occurrence of tonic seizures were used for calculating anticonvulsant ED values by probit analysis. Mice were used only once for testing at each time and dose point.
# [1] = 10 mg/kg IV, 15 minutes post treatment
# [2] = 30 mg/kg IV, 15 minutes post treatment
# [3] = 30 mg/kg IV, 45 minutes post treatment
# [4] = 10 mg/kg IV, 15 minutes post treatment, dihydrochloride
# [5] = 10 mg/kg IV, 45 minutes post treatment, dihydrochloride
structure (smiles),measurement,setting,value
"CC(C)C[C@@H](CN[C@@H](Cc1ccc(OCc2ccccc2)cc1)C(=O)NC(C)(C)C)NC(=O)N1CCCCCC1 (relative stereo) [Example 2, [S-(R*,R*)]Azepane-1-carboxylic acid (1-{[2-(4-benzyloxy-phenyl)-1-tert-butylcarbamoyl-ethylamino]-methyl}-3-methyl-butyl)-amide dihydrochloride salt]",IC50,N-type Ca2+ channel,0.19 µM
same,Number of Mice Protected from Tonic Convulsions / number of mice tested,DBA/2 mice; [1],1/5
same,Number of Mice Protected from Tonic Convulsions / number of mice tested,DBA/2 mice; [2],5/5
same,Number of Mice Protected from Tonic Convulsions / number of mice tested,DBA/2 mice; [3],1/5
same,protection,DBA/2 mice,100%
"CCN(CC)C[C@H](Cc1ccc(OCc2ccccc2)cc1)NC(=O)[C@H](CC(C)C)NC(=O)N1CCCCCC1 [Example 6, (S,S)-Azepane-1-carboxylic acid {1-[2-(4-benzyloxy-phenyl)-1-diethylaminomethyl-ethylcarbamoyl]-3-methyl-butyl}-amide]",IC50,N-type Ca2+ channel,1.1 µM
"CC(C)CC(N)CN[C@@H](Cc1ccc(OCc2ccccc2)cc1)C(=O)NC(C)(C)C (single isomer, unassigned) [Example 8, 2-(2-Amino-4-methyl-pentylamino)-3-(4-benzyloxy-phenyl)-N-tert-butyl-propionamide dihydrochloride]",IC50,N-type Ca2+ channel,1 µM
same,Number of Mice Protected from Tonic Convulsions / number of mice tested,DBA/2 mice; [4],0/5
same,Number of Mice Protected from Tonic Convulsions / number of mice tested,DBA/2 mice; [5],0/5
"CC(C)C[C@H](NC(=O)N1CCCCCC1)C(=O)N[C@H](COC(C)(C)C)Cc1ccc(OCc2ccccc2)cc1 (relative stereo) [Example 1, [S-(R*,R*)]-Azepane-1-carboxylic acid {1-[2-(4-benzyloxy-phenyl)-1-tert-butoxymethyl-ethylcarbamoyl]-3-methyl-butyl}-amide]",IC50,N-type Ca2+ channel,0.21 µM
same,Number of Mice Protected from Tonic Convulsions / number of mice tested,DBA/2 mice; [1],1/5
same,Number of Mice Protected from Tonic Convulsions / number of mice tested,DBA/2 mice; [2],4/5
same,Number of Mice Protected from Tonic Convulsions / number of mice tested,DBA/2 mice; [3],2/5
same,protection,DBA/2 mice,80%
"CC(C)C[C@H](NC(=O)N1CCCCCC1)C(=O)N[C@H](CNC(C)(C)C)Cc1ccc(OCc2ccccc2)cc1 (relative stereo) [Example 5, [S-(R*,R*)]Azepane-1-carboxylic acid {1-[2-(4-benzyloxy-phenyl)-1-(tert-butylamino-methyl)-ethylcarbamoyl]-3-methyl-butyl}-amide trifloroacetate salt]",IC50,N-type Ca2+ channel,1.1 µM
"CC(C)C[C@H](NC(=O)N1CCCCCC1)C(=O)N[C@@H](Cc1ccc(OCc2ccccc2)cc1)CN1CCOCC1 (relative stereo) [Example 4, [S-(R*,R*)]-Azepane-1-carboxylic acid {1-[2-(4-benzyloxy-phenyl) -1-morpholin-4-ylmethyl-ethylcarbamoyl]-3-methyl-butyl}-amide]",IC50,N-type Ca2+ channel,1.2 µM
"CC(C)C[C@@H](C(=O)N[C@@H](Cc1ccc(OCc2ccccc2)cc1)CN1CCOCC1)N(C)C (relative stereo) [Example 3, [S-(R*,R*)]-2-Dimethylamino-4-methyl-pentanoic acid [2-(4-benzyloxy-phenyl)-1-morpholin-4-ylmethyl-ethyl]-amide]",IMR32 % @ 1 μM,"N-type Ca2+ channel; 1 μM compound, 5 μM nitrendipine",6% @ 1 μM
same,IMR32 % @ 10 μM,"N-type Ca2+ channel; 10 μM compound, 5 μM nitrendipine",48% @ 10 μM
same,melting point,,113 to 114 °C
"CC(C)CC(N)CN[C@@H](Cc1ccc(OCc2ccccc2)cc1)C(=O)NC(C)(C)C (single isomer, unassigned) [Example 7, dihydrochloride]",IC50,N-type Ca2+ channel,1.2 µM
same,Number of Mice Protected from Tonic Convulsions / number of mice tested,DBA/2 mice; [4],2/5
same,Number of Mice Protected from Tonic Convulsions / number of mice tested,DBA/2 mice; [5],1/5
